Assay results from patent publication US7569582B2, “Aminotropane derivatives, preparation thereof and therapeutic use thereof” (Sanofi-Aventis, priority 2004, dated 2009).
Where a name gives a salt, the structure may show the parent alone. Blank lines part the entries; values can stand above or below the compound they belong to.

Legend:
human MC3 receptor = target: T1, human MC3 receptor (Homo sapiens, UniProt P41968); assay: Functional agonist assay: cAMP formation in CHO(dhfr-) cells expressing the human MC3 receptor; assay type: cell-based; conditions: 1 hour incubation, 50% of the maximum stimulation obtained with the compound, read-out: EC50 with respect to the MC3 receptor
T1 construct: expressed in transfected cells; host or cells: CHO(dhfr-)
Description: (§1) A functional assay is used to differentiate between the agonist activity and the antagonist activity. For this, the formation of cyclic adenosine monophosphate (cAMP) generated by activation of the MC3 receptor or of the MC4 receptor is assayed.
CHO(dhfr-) cells expressing the human MC3 receptor are seeded into MEM Eagle culture medium (Sigma) containing 10% of dialysed calf serum, 1% L-glutamine, 1% sodium pyruvate, 20 mg/500 ml L-proline, 0.3 mg/ml Geneticin and 0.5% PenStrep, these products being provided by Gibco/BRI, except for the dialysed calf serum (Cambrex) and the L-proline (Sigma).
(§2) The compounds to be tested (diluted in 10% DMSO), in an amount of 10 μl at a concentration of 10 times the final concentration, are added to the plates of cells (final volume=100 μl/well). After incubation for 1 hour (37° C., 5% CO2), the amount of cAMP is assayed using Tropix kits (Appelera) according to the supplier's documentation. The intrinsic activity of the compounds is calculated by comparing the stimulation of cAMP by these compounds to the stimulation induced by 30 nM of NDP[…]MSH (maximum of 100%). The EC50 value for the compounds corresponds to the concentration which produces 50% of the maximum stimulation obtained with this compound.

human MC4 receptor [1] = target: T2, human MC4 receptor (Homo sapiens, UniProt P32245); assay: Functional agonist assay: cAMP formation in CHO-K1 cells expressing the human MC4 receptor; assay type: cell-based; conditions: 1 hour incubation, 50% of the maximum stimulation obtained with the compound, read-out: EC50 with respect to the MC4 receptor
T2 construct: host or cells: CHO-K1
Description: as §1
CHO-K1 cells, expressing the human MC4 receptor at a moderate density (Euroscreen), are seeded into DMEM/Nutrient Mix F12 culture medium (Gibco/BR1) containing 10% of foetal calf serum, 0.5% sodium pyruvate, 1% L-glutamine, 1% non-essential amino acids, 200 mg/l hygromycin B and 0.5% PenStrep, these products being provided by Gibco/BR1, except the calf serum (Biowhittaker) and hygromycin B (Sigma).
as §2

human MC4 receptor [2] = target: T2, human MC4 receptor; assay: Affinity assay: displacement of [125I]-[Nle4,D-Phe7]-α-MSH binding to membranes of CHO-K1 cells expressing hMC4 (SPA); conditions: displacement of specific radioligand binding by 50%; radioligand 100 pM; read-out: IC50 with respect to the MC4 receptor
Description: This affinity assay is carried out by measuring the binding of [^125I]-[Nle^4-D-Phe^7]-[…]-MSH to cell membranes. The displacement of this radioligand is used to identify inhibitors of the specific binding to recombinant melanocortin receptors.
For this assay, membranes prepared from CHO-K1 cells expressing the human MC4 receptor at high density (Euroscreen) or membranes, that were purchased (Perkin Elmer Life Sciences, Receptor Biology), of HEK-293 cells expressing hMC3 receptors were used. CHO-K1 cells transfected with the hMC4 receptor gene (Euroscreen) are seeded into DMEM/Nutrient Mix F12 culture medium containing 10% foetal calf serum (Biowhittaker), 1% sodium pyruvate, 1% L-glutamine, 1% non-essential amino acids, 0.4 mg/ml geneticin (G418) and 0.5% PenStrep, these products being provided by Gibco/BR1, except the calf serum. At 80% confluency, the cells are scraped off and the cell pellets are frozen at −80° C.
A tube of cells (approximately 70×10^6 cells) is thawed on ice and resuspended in 10 ml of binding buffer [25 mM HEPES, pH 7.0, 1 mM MgCl2, 1.5 mM CaCl2, 100 mM NaCl, 1 mM 1,10-phenanthroline and 1 tablet of Complete^TR (protease inhibitor from Roche) in 50 ml of buffer] using a polytron for 20 seconds. […] The nonspecific binding is defined by NDP-[…]MSH at 10^−7 M. The total binding is measured by the number of counts per minute in the presence of the radioligand alone. […]

T2 sequence (P32245 whole entry): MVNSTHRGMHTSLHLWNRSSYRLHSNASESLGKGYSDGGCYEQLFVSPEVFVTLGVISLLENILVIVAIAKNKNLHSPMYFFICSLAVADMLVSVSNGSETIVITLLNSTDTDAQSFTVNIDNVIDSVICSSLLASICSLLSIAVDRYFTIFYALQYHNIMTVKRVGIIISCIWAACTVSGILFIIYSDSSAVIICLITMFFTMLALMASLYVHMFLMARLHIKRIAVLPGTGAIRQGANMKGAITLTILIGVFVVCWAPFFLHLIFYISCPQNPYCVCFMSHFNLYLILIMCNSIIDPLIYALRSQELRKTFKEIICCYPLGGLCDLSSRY
T1 sequence (P41968 whole entry): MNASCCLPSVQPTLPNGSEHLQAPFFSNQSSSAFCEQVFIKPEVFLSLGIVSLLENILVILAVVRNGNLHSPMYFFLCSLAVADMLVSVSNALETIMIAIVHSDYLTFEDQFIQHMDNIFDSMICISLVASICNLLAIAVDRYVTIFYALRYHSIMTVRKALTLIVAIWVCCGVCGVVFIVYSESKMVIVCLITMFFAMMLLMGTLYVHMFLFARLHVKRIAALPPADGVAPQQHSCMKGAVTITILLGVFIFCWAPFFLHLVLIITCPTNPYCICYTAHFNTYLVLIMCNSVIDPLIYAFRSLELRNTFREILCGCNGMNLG

SMILES: CCN(CC)C(=O)N(C1CCCCC1)C1CC2CCC(C1)N2C(=O)[C@@H](Cc1ccc(Cl)cc1)NC1CCC(N)CC1 (stereo partly drawn) [compound 3, N-{8-[N-(4-aminocyclohexyl)-4-chloro-D-phenylalanyl]-8-azabicyclo[3.2.1]oct-3-yl}-N-cyclohexyl-N′,N′-diethylurea]
- EC50 (human MC3 receptor): 330 nM
- EC50 (human MC4 receptor [1]): 28 nM
- IC50 (human MC4 receptor [2]): 280 nM

SMILES: CCN(CC)C(=O)N(C1CCCCC1)C1CC2CCC(C1)N2C(=O)[C@@H](Cc1ccc(Cl)cc1)NC1CCC(N)CC1 (stereo partly drawn) (as salt: HCl) [compound 3, N-{8-[N-(4-aminocyclohexyl)-4-chloro-D-phenylalanyl]-8-azabicyclo[3.2.1]oct-3-yl}-N-cyclohexyl-N′,N′-diethylurea]
- melting point: 208 °C

SMILES: CCN(CC)C(=O)N(C1CCCCC1)C1CC2CCC(C1)N2C(=O)[C@@H](Cc1ccc(Cl)cc1)NCCCN (stereo partly shown) (as salt: HCl)
- melting point: 215 °C

SMILES: CCN(CC)C(=O)N(C1CCCCC1)C1CC2CCC(C1)N2C(=O)[C@@H](Cc1ccc(Cl)cc1)NC(C)/C=N/O (stereo partly shown) (as salt: HCl)
- melting point: 132 °C

More lines, now with the values ahead:

- melting point: 220 °C
SMILES: CCN(CC)C(=O)N(C1CCCCC1)C1CC2CCC(C1)N2C(=O)[C@@H](Cc1ccc(Cl)cc1)NC1CCNC1 (stereo partly shown) (as salt: HCl)

- melting point: > 200 °C
SMILES: CCN(CC)C(=O)N(C1CCCCC1)C1CC2CCC(C1)N2C(=O)[C@@H](Cc1ccc(Cl)cc1)NC1CCSC1 (stereo partly shown) (as salt: HCl)

- melting point: 105 °C
SMILES: CCN(CC)C(=O)N(C1CCCCC1)C1CC2CCC(C1)N2C(=O)[C@@H](Cc1ccc(Cl)cc1)NCCN (stereo partly shown) (as salt: HCl)

- melting point: 170 °C
SMILES: CCN(CC)C(=O)N(C1CCCCC1)C1CC2CCC(C1)N2C(=O)[C@@H](Cc1ccc(Cl)cc1)NC1CNC1 (stereo partly shown) (as salt: HCl)
